The nature of this data set: Human HepG2 cell viability assay in 384 well format. The class given is toxicity, cell-based. On the set-up: dose 125 nL, time 70.5 hour; concentration not given beside the values. The conditions noted are these: HepG2 cells, read-out: Inhibition.
Regarding `Fc1ccc(Sc2ccccc2CNC2=NCCN2)cc1`, the cytotoxicity at 70.5 h is -5.29%. As for `O=c1ncn(-c2ccccc2F)c2ncccc12`, the cytotoxicity at 70.5 h is -5.32%.

Consider `Fc1ccccc1Sc1ccccc1CNC1=NCCN1`, for which the cytotoxicity at 70.5 h was -0.773%. The same measure for `CCOC(=O)c1cnn(-c2cc(Oc3cccc(C)c3)ncn2)c1N`: -0.773%; for `NC(=O)Cn1cnc2nc3n(c2c1=O)CCC3`: 16.5%. On to `CCC1CCc2c(c3ccccc3[nH]c2=O)O1` (stereo not given), for which the cytotoxicity at 70.5 h turned out to be 24.6%. With `CC1CCc2c(c3ccccc3[nH]c2=O)O1` (stereo not given), the cytotoxicity at 70.5 h was -6.86%.

For `CCn1cc(C(=O)Nc2ccccc2C(=O)OC)cn1`, the cytotoxicity at 70.5 h was determined as 13.1%. The same measure for `Cn1c(=O)c2c(c3ccccc31)OC(C)(C)CC2`: -9.34%; for `Cn1c2c(c(=O)c3ccccc31)CCC(C)(C)O2`: -9.34%; for `Nc1ncccc1C(=O)NCc1ccc(Br)cc1`: -2.61%.

With `Nc1ncccc1C(=O)NCc1cccc(Cl)c1`, the cytotoxicity at 70.5 h was -8.22%. The same measure for `O=c1[nH]nc2c(N3CCCCCC3)nccn12`: -8.09%; for `O=c1[nH]nc2c(N3CCOCC3)nccn12`: -11.6%. With `COc1ccccc1-c1ccnc2nc(N3CCCCC3)[nH]c(=O)c12`, the cytotoxicity at 70.5 h was -15.7%. The same measure for `COCCN1CCn2c(nc3cc(C(=O)NC(C)C)ccc32)C1`: -6.96%; for `O=C(O)CNC(=O)Cc1csc(-c2cccc(Cl)c2)n1`: 21.1%. `CC(C)OCCCNC(=O)CN(c1ccc(F)c(F)c1)S(C)(=O)=O`: the cytotoxicity at 70.5 h is -6.87%. The same measure for `CC(C)C[C@H](NC(=O)Cc1csc(-c2cccc(Cl)c2)n1)C(=O)O`: 19.2%; for `C[C@H](NC(=O)Cc1csc(-c2cccc(Cl)c2)n1)C(=O)O`: 19.3%. With `O=C(CC1Cn2ncnc2NC1=O)Nc1ccc(F)c(F)c1` (stereo not given), the cytotoxicity at 70.5 h is -7.69%.

In the case of `CC(C)n1[nH]c(=O)c2c1NC(=O)CSC2c1cccc(OCC(N)=O)c1` (stereo not given), the cytotoxicity at 70.5 h is -11.3%. The same measure for `CC(C)n1c(=O)c2sccc2n(CC(=O)Nc2cccc(Cl)c2)c1=O`: -12.8%; for `O=C(CC1Cn2ncnc2NC1=O)Nc1cccc(C(F)(F)F)c1` (stereo not given): -11.2%; for `CC1=Nc2c(c(O)nn2C(C)C)C(c2cnn(C)c2)S1` (stereo not given): -11%. The same measure for `Cc1ccc(C)c(-c2[nH]c3ccccc3c2C(=O)O)c1`: -12.7%; for `COc1ccc(C)cc1-c1[nH]c2ccccc2c1C(=O)O`: -10.2%; for `Cn1c(=O)[nH]c(=O)n2c(CC(=O)Nc3ccc(Cl)c(Cl)c3)cnc12`: -12.5%. Then `CCNC(=O)c1ccc2c(c1)nc1n2CCN(C(C)C)C1`, with -9.53%; and `CC(=O)N1CCN(C(=O)c2sc(-c3ccccc3F)nc2C)CC1`, with 16.5%. Take `O=C1CC(c2ccsc2)c2sc(C(=O)O)c(-c3ccc(F)cc3)c2N1` (stereo not given): the cytotoxicity at 70.5 h was -4.46%. Then `O=C(CSC1CCc2ccccc2NC1=O)NC1CC1` (stereo not given), with -2.66%; and `O=C(Cn1ccc2c(Cl)cccc21)N1CCCC1`, with -1.08%.

`O=C(CSC1CCc2ccccc2NC1=O)NCCc1ccc(O)cc1` (stereo not given): the cytotoxicity at 70.5 h is -2.27%. The same measure for `CC(C)n1[nH]c(=O)c2c1NC(=O)CC2c1ccc(S(C)(=O)=O)cc1` (stereo not given): -17.1%; for `O=C(CSC1CCc2ccccc2NC1=O)NCc1ccccc1` (stereo not given): 6.38%; for `NC(=O)c1ccc(NC(=O)Cn2cc(-c3ccccc3)ncc2=O)cc1`: -17.2%. Then `Cn1cc(NC(=O)Cn2cc(-c3ccccc3)ncc2=O)cn1`, with 19.6%. Then `Cc1c(C2CC(=O)Nc3c2cnn3C(C)(C)C)cnn1C` (stereo not given), with -11.8%; and `Cc1cnc(NC(=O)CSC2CCc3ccccc3NC2=O)s1` (stereo not given), with 1.54%; and `Cc1nc(-c2ccccc2F)sc1C(=O)N1CCC(=O)CC1`, with -8.75%. Consider `O=C1CC(c2ccc(O)cc2)c2sc(C(=O)O)c(-c3ccccc3)c2N1` (stereo not given), for which the cytotoxicity at 70.5 h was -16.3%. With `CC(=O)c1cccc(NC(=O)Cn2cc(-c3ccccc3)ncc2=O)c1`, the cytotoxicity at 70.5 h is -6.47%.

Regarding `O=C(Cn1cc(-c2ccccc2)ncc1=O)NC1CCCCC1`, the cytotoxicity at 70.5 h worked out at 5.64%. Then `Cn1c(=O)[nH]c(=O)c2c1nc1n2CC(c2ccc(Cl)cc2)O1` (stereo not given), with 43%.

As to `Cc1cc(O)n(-c2ccccc2Cl)c(=O)c1C#N`, the cytotoxicity at 70.5 h was -0.226%. Then `O=C(Nc1ccc(I)cc1C(=O)NCCN1CCOCC1)c1cccs1`, with 11.1%; and `CC(=O)c1c(C)nn(S(=O)(=O)c2ccc(C)c(C)c2)c1C`, with -0.468%. Then `CC(=O)c1c(C)nn(S(=O)(=O)c2ccc(Cl)cc2)c1C`, with 3.92%; and `CCOC1Sc2nnc(C)n2N=C1c1ccc(Br)cc1` (stereo not given), with -8.58%; and `CC(=O)c1c(O)n(C)c2ccc(C)cc12`, with 1.11%. The same measure for `O=C(CCn1ccnc1)N1CC[C@H](Oc2cccc(F)c2)[C@@H](O)CC1`: 28.5%. In the case of `COc1cccc(O[C@H]2CCN(c3nc(C)cc(C)n3)CC[C@@H]2O)c1`, the cytotoxicity at 70.5 h is 20.4%. The same measure for `O=C1CN([C@@H]2CC[C@@H](NS(=O)(=O)c3ccccc3F)[C@H]2O)CCN1`: 25.1%; for `Cn1ccc(C(=O)N2CCCC2c2cc[nH]n2)n1` (stereo not given): 25.1%; for `Fc1ccccc1CN1CCC[C@H](Cn2nnc(-c3cccs3)n2)C1`: -0.999%. The same measure for `COc1ccccc1NC(=O)c1cnc(C2CCN(C(C)=O)C2)nc1C` (stereo not given): -1.01%; for `O=C1CN([C@@H]2CC[C@@H](NS(=O)(=O)c3ccc(F)cc3)[C@H]2O)CCN1`: 4.31%. The same measure for `CC(C)n1nccc1CN1Cc2nccn2CC1c1ccccc1` (stereo not given): -7.71%; for `CC(=O)N1CCC(Cc2ccc(-c3ccnn3C)nc2)CC1`: -7.13%. In the case of `CC(=O)N[C@@H]1CN(C(=O)c2cccc(C(F)(F)F)c2)C[C@H]1O`, the cytotoxicity at 70.5 h is -4.74%. For `CC1(c2ncc(CN3CCOCC3)cn2)CCCCO1` (stereo not given), the cytotoxicity at 70.5 h is -1.05%. Then `CC(C)c1cc(C(=O)N[C@@H]2CC[C@@H](Oc3ccccc3)[C@@H]2O)on1`, with -3.21%.

Consider `Cc1ccccc1S(=O)(=O)N[C@@H]1CC[C@@H](N2CCNC(=O)C2)[C@@H]1O`, for which the cytotoxicity at 70.5 h is -4.42%. Then `O=C(c1cnccn1)N1CCCC(C2=Nc3ccccc3S(=O)(=O)N2)C1` (stereo not given), with -6.36%; and `Cc1ccc(-c2noc(C3CCN3C(=O)c3ccn(C)n3)n2)s1` (stereo not given), with 1.02%.

On to `Cc1cccc(-c2nccnc2C2CCCN(C)C2)c1` (stereo not given), for which the cytotoxicity at 70.5 h is -2.49%. On to `COCC(=O)N1CCCC1(C(=O)N(C)C)c1cnccn1` (stereo not given), for which the cytotoxicity at 70.5 h is -4.12%. Consider `C=C(C)Cn1nc(C)c(CN2CCN(C3CCCCC3)C(=O)C2)c1C`, for which the cytotoxicity at 70.5 h was determined as 1.66%. The same measure for `Cc1nc(-c2ccnn2C)cc(C2CCCN(S(C)(=O)=O)C2)n1` (stereo not given): -6.24%; for `CNc1ccc(C2CN(c3nc(C)cc(C)n3)CCO2)nc1` (stereo not given): -2.83%; for `CC(=O)N1CCCC1CCc1ccnc(-c2cncnc2)c1` (stereo not given): -2.53%.

For the molecule `CCOc1ccc(CN2CCOCC2c2[nH]ncc2C)cc1CO` (stereo not given), the cytotoxicity at 70.5 h was -2.3%. Then `CNC(=O)C1(C)CN(S(=O)(=O)c2cccc(OC)c2)CCO1` (stereo not given), with 22.5%; and `O=C(Cn1cccn1)N1CCC(c2nnc(-c3ccsc3)o2)CC1`, with -4.75%. The same measure for `CNc1ccc(C2CN(c3cc(C)nc(N)n3)CCO2)nc1` (stereo not given): -2.26%; for `CC1CCN(c2ncc(-c3ccccc3F)c(-c3nccn3C)n2)CC1`: -2.25%. Then `CC(C)NC(=O)C1(Cc2ccccc2-c2cncnc2)CCCNC1` (stereo not given), with -4.61%. Turning to `COc1cccc(S(=O)(=O)N2CCOC(C)(C(N)=O)C2)c1` (stereo not given), the cytotoxicity at 70.5 h was -3.76%.

As for `Cc1nc2cc(C3CCOCC3)nn2c(NCC2COCCO2)c1C` (stereo not given), the cytotoxicity at 70.5 h came out at 20.9%. Then `O=C(c1cnco1)N1CCC(Cc2ccc3ncccc3c2)CC1`, with 5.02%; and `CN1CCc2nc(C3CCCN(S(=O)(=O)N4CCCC4)C3)ncc2C1` (stereo not given), with 0.156%; and `CN(C)C(=O)c1cncnc1-c1ccc(CNC(=O)C2CC2)cc1`, with -11.4%. On to `CC(NC(=O)C1CC1)c1cc(O)nc(-c2cccnc2)n1` (stereo not given), for which the cytotoxicity at 70.5 h was determined as 26.9%. Then `CS(=O)(=O)N1CCCCCC1c1cc(-c2ccc(F)cc2)no1` (stereo not given), with 5.67%; and `CN1C[C@]2(CC[C@@H](C(=O)O)CC2)Oc2ccccc2C1=O`, with -6.54%; and `CCCC(=O)NCCc1nc2cc(-c3ccc(OC)cc3)ncn2n1`, with -8.47%. Regarding `Cc1ccc(CN2CCOCC2c2[nH]ncc2C)cn1` (stereo not given), the cytotoxicity at 70.5 h is -7.81%.

With `Cc1cn[nH]c1C1COCCN1Cc1cscn1` (stereo not given), the cytotoxicity at 70.5 h is -13.2%.

For `CC1(c2ncc(CN3CCN(c4ncccn4)CC3)cn2)CCCCO1` (stereo not given), the cytotoxicity at 70.5 h was -9.22%. The same measure for `COc1ccc(CCc2nnc(NC(=O)C3CC34CCC4)s2)cc1OC` (stereo not given): -8.17%; for `CCc1nnc(Nc2cc(C)nc(C3CN(C(C)=O)CCO3)c2)s1` (stereo not given): 0.483%; for `CS(=O)(=O)N1CCCC1c1ccnc2nccn12` (stereo not given): -12.2%. For `Cc1noc(C)c1-c1cccc(C2CCN(S(=O)(=O)N(C)C)CC2)n1`, the cytotoxicity at 70.5 h came to 2.89%.

On to `Cc1ncc(C(=O)N2CCOC(C(=O)N3CCCCC3)C2)c(C)n1` (stereo not given), for which the cytotoxicity at 70.5 h is -3.05%. Then `CCC(CO)NCc1ccc(-c2ccc(Cl)cc2)o1` (stereo not given), with 7.49%; and `c1nc(N2CCOCC2)sc1-c1cncn1CCCN1CCCCC1`, with -4.2%; and `Cc1nc(N)c2ccc(C3CCCCN3)nc2n1` (stereo not given), with -1.97%. In the case of `c1nc(N2CCOCC2)ncc1-c1cncn1CCCN1CCCCC1`, the cytotoxicity at 70.5 h is -13.7%. The same measure for `NC1CCc2nc(-c3cccnc3)nc(Nc3ccc(F)cc3)c2C1` (stereo not given): 3.41%.
